A short description of experiment [1]: Test of Anti-depressive Activity (duration of immobility, forced swimming). It counts as in vivo, Sprague Dawley rats. Particulars: 20 mg/kg × 3, oral 24, 5 and 1 hour before test. The protocol: The tests were carried out on groups of 5 Sprague Dawley rats and the inexperienced animals were placed for 15 minutes in a vertical perspex cylinder (diameter: 18 cm, height: 40 cm) containing water at 25° C. to a height of 15 cm (initial swimming test). They were then dried for 15 minutes in an enclosure heated to 32° C. 24 hours later, they were replaced in the cylinder filled with water and the total duration of immobility was measured for 5 minutes. The compound was administered orally successively 24, 5 and 1 hour before the test. The first administration took place immediately after the initial swimming test, just before replacing the animals in their breeding box. The average of the groups treated were compared with those of the control group by the Dunnett test.

A further experiment has as its target T1, Enkephalinase (Rattus norvegicus, UniProt P07861).
T1 construct: from tissue; host or cells: rat kidney membranes (15,000 g particulate fraction, solubilised with octyl beta-D-glucopyranoside, 100,000 g supernatant)
T1 sequence (P07861 1-750): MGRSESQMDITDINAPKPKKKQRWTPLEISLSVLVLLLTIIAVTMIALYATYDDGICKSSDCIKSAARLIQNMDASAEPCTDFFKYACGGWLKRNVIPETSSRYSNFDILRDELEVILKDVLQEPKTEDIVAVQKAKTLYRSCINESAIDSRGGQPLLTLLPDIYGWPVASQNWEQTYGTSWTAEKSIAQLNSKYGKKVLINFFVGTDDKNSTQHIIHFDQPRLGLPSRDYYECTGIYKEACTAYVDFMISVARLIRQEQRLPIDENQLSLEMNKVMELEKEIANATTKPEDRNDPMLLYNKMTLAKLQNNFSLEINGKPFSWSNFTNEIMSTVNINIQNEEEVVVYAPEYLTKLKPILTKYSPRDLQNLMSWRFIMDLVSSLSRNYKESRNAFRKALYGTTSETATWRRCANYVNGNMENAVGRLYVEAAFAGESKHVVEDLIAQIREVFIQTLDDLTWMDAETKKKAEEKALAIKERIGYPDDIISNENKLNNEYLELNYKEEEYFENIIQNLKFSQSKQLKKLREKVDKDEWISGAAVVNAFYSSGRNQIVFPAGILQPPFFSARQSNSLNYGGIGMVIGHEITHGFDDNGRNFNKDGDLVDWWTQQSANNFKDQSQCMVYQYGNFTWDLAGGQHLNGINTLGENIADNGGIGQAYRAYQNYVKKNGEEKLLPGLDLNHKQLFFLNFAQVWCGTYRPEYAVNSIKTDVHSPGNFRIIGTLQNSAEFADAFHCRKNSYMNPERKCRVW
The experiment in a line: Determination of the Inhibiting Effect of Enkephalinase (hydrolysis of succinyl-Ala-Ala-Phe-amino-methylcoumarine, fluorescence). The settings on record: rat renal membrane; substrate 40 μM; pH 7.5; 37° C., 30 minutes; read-out: IC50 (concentration which inhibits the hydrolysis of the substrate by 50%). It counts as biochemical. The protocol: The activity of enkephalinase was determined starting with a piece of renal membrane of a rat. The kidneys were removed on ice and homogenized in HEPES 0.05M buffer pH 7.5 containing magnesium chloride (50 times the volume). After a first centrifuging at 1,500 g, the particular fraction was obtained after centrifuging at 15,000 g for 20 minutes. The residue was then washed and suspended in HEPES buffer and kept at -20 C. A part of this membrane preparation was placed in the presence of octyl β-D-glucopyranoside (50 mM in final centrifuging) for 15 minutes 15 4° C. After centrifuging at 100,000 g for one hour, the supernatant was removed and frozen by aliquots at -20° C. The concentration in proteins was determined by the method with Comassie blue.
An aliquot of the protein fraction so prepared was pre-incubated at 25° C. for 10 minutes in HEPES 0.05M buffer pH 7.5 or in the presence of the test product. The substrate added was a non-natural enkephaline of the formula succinyl-Ala-Ala-Phe-amino-methylcoumarine (reference 1) (40 μM in final concentration): the incubation was continued at 37° C. for 30 minutes. The reaction was stopped by heating to 95° C. for 5 minutes and each incubate was centrifuged. A solution of aminopeptidase M (4 μM in final concentration) and of thiorphan (reference 2) (10^-5 M) was added to the supernatant and the mixture was taken to 37° C. for one hour. The reaction was stopped as previously described and the fluorescence of the 7-aminomethylcoumarineso produced was determined. The effect of the products under test was detemined by calculating the IC50 as the concentration which inhibits the hydrolysis of the substrate by 50%.

Experiment [2] in a line: Analgesic activity: Stretching Caused by Acetic Acid in Mice. It counts as in vivo. Particulars: Mus musculus, 0.5 h; oral, half-an-hour before 1% acetic acid 10 ml/kg intraperitoneal; 15 minutes observation; read-out: AD50 (active dose which enabled a reduction of 50% of the number of stretchings as compared with control animals). The protocol: The test used was based on the fact reported by R. KOSTER et al [Fed. Proc. (1959), Vol. 18, p. 412] in which the intraperitoneal injection of acetic acid caused in mice repeated stretching and twisting movements which can persist for more than 6 hours. The analgesics prevent or diminish this syndrome which can be considered as the exteriorization of a diffuse abdominal pain. A 1% solution of acetic acid in water was used, administered at a rate of 10 ml/kg. The product studied was administered by oral route half-an-hour before injection of the acetic acid, the mice being without food for a minimum 6 hours. The stretchings were observed and counted for each mouse for an observation period of 15 minutes. The results were expressed as the AD50, that is to say, the active dose which enabled a reduction of 50% of the number of stretchings as compared with control animals. The AD50 found for the compound of Example 2 was 80 mg/kg.

As for `O=C(NN1CCOCC1)C(CS)Cc1ccccc1` (stereo not drawn) [Example 2, α-mercaptomethyl-N-(4-morpholinyl)-benzene propanamide], the “Duration of immobility” value in experiment [1] (5 minutes measured, control 232 ± 7) was found to be 138 ± 20 s. Further, in experiment [1] (versus control group), the “Duration of immobility, % variation” value was -41%. The IC50 at Enkephalinase was 220 nM. Also, the ED50 in experiment [2] stood at 80 mg/kg.

For the molecule `O=C(NN1CCCCCC1)C(CS)Cc1ccccc1` (stereo not drawn) [Example 8, N-(hexahydro-1H-azepinyl)-α-(mercaptomethyl)-benzene propanamide], the IC50 at Enkephalinase came out at 390 nM.

As to `O=C(NN1CCCC1)C(CS)Cc1ccccc1` (stereo not drawn) [Example 10, α-mercaptomethyl-N-(1-pyrrolidinyl)-benzene propanamide], the IC50 at Enkephalinase is 71 nM.

On to `O=C(NN1CCSCC1)C(CS)Cc1ccccc1` (stereo not drawn) [Example 12, α-mercaptomethyl-N-(tetrahydro-2H-1,4,-thiazin-4-yl)-benzene propanamide], for which the IC50 on Enkephalinase is 350 nM.

The record behind these values is patent publication US4839358A, “Alpha-mercaptomethyl-benzene propanamides, pharmaceutical compositions and use” (Roussel Uclaf, priority 1987, dated 1989).
